From ChEMBL document CHEMBL1201862, “PubChem BioAssay data set” (2004) come the findings set out here.

Some test systems named below: 786-0; A549; EKVX; HCC 2998; HCT-116; HT-29; LOX IMVI; MDA-MB-435; Malme-3M; NCI-H226; NCI-H23; OVCAR-5; OVCAR-8; RXF 393; SF-295; SF-539; SK-MEL-28; SK-MEL-5; SN12C; TK-10.
Experiment in all cases: NCI anticancer screen, dose series, 48 h

The structures appear in SMILES notation.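 Dose response: 5 concentrations. Exposure: 48 h. Format: 96-well plates. Endpoint: linear interpolation; highest concentration if not reached. At the GI50, growth is halved.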 The source made the active and inactive calls. Cut-off read from the data, not from the text of the source: active = GI50 up to about 1.1 µM and inactive = higher.

Turning to `CCOC(=O)c1c(N2CCCC2)[nH]c(=O)c(C(c2c(O)c(C(=O)OCC)c(N3CCCC3)[nH]c2=O)C(C)C)c1O`, the GI50 was 61.8 µM (inactive) in the experiment on 786-0; > 100 µM (inactive) in the experiment with A549; > 100 µM (inactive) with EKVX; 52.8 µM (inactive) in the experiment with HCC 2998; > 100 µM (inactive) in the experiment on HCT-116; > 100 µM (inactive) with HT-29. For the same compound, the GI50 with LOX IMVI is > 100 µM (inactive); in the experiment on MDA-MB-435 it was > 100 µM (inactive); with Malme-3M it was > 100 µM (inactive); in the experiment on NCI-H226 it was > 100 µM (inactive); in the experiment with NCI-H23 it was 71.1 µM (inactive); in the experiment on OVCAR-5, 33.2 µM (inactive). Moreover, the GI50 is > 100 µM (inactive) with OVCAR-8; 43 µM (inactive) in the experiment on RXF 393; > 100 µM (inactive) in the experiment with SF-295; > 100 µM (inactive) in the experiment with SF-539; > 100 µM (inactive) in the experiment with SK-MEL-28; > 100 µM (inactive) in the experiment on SK-MEL-5. Besides, the GI50 in the experiment on SN12C is > 100 µM (inactive); in the experiment with TK-10 it was 42.4 µM (inactive).

`COC(=O)c1ccccc1C1CN=NC12Cc1ccc(C)cc1C2=O` (stereo not given): the GI50 with 786-0 is > 100 µM (inactive); with A549, 47.6 µM (inactive); in the experiment with EKVX, 65.8 µM (inactive); in the experiment with HCC 2998 it was 64.7 µM (inactive); with HCT-116, 38.6 µM (inactive); in the experiment on HT-29, 42.6 µM (inactive). The GI50 in the experiment on LOX IMVI was 48.1 µM (inactive); in the experiment with MDA-MB-435, 33.3 µM (inactive); in the experiment on Malme-3M, 86.5 µM (inactive); in the experiment on NCI-H226 it was 73.1 µM (inactive); with NCI-H23 it was 59 µM (inactive); in the experiment with OVCAR-5, > 100 µM (inactive). Besides, the GI50 in the experiment on OVCAR-8 was > 100 µM (inactive); with RXF 393 it was 97.7 µM (inactive); in the experiment on SF-295, 46.8 µM (inactive); in the experiment with SF-539, > 100 µM (inactive); with SK-MEL-28, 67.8 µM (inactive); in the experiment on SK-MEL-5, 38.1 µM (inactive). The GI50 was 58.6 µM (inactive) with SN12C and > 100 µM (inactive) in the experiment with TK-10.

Take `C=CCn1c(=O)ccn(/C(=C/C(=O)OCC)C(=O)OCC)c1=O`: the GI50 in the experiment with 786-0 was 3.48 µM (inactive); with A549, 17.5 µM (inactive); in the experiment with EKVX, 17.2 µM (inactive); in the experiment with HCC 2998, 16.5 µM (inactive); in the experiment on HCT-116, 7.1 µM (inactive); in the experiment on HT-29 it was 10.4 µM (inactive). For the same compound, the GI50 in the experiment on LOX IMVI is 6.7 µM (inactive); in the experiment on MDA-MB-435 it was 12.8 µM (inactive); in the experiment with Malme-3M, 11 µM (inactive); in the experiment on NCI-H226 it was 13.9 µM (inactive); in the experiment with NCI-H23, 17.1 µM (inactive); in the experiment on OVCAR-5 it was 15.6 µM (inactive). Also, the GI50 in the experiment on OVCAR-8 is 15.6 µM (inactive); with RXF 393 it was 14.1 µM (inactive); with SF-295, > 52.4 µM (inactive); in the experiment on SF-539 it was 24 µM (inactive); in the experiment with SK-MEL-28, 15.2 µM (inactive); in the experiment on SK-MEL-5, 15.1 µM (inactive). The GI50 is 8.73 µM (inactive) with SN12C and 11.9 µM (inactive) in the experiment on TK-10.

Regarding `Cc1ccc(S(=O)(=O)NN=C2C(C)(C)CC2(C)C)cc1`, the GI50 in the experiment on 786-0, in the experiment on A549, in the experiment with EKVX, in the experiment with HCC 2998, with HCT-116 and in the experiment with HT-29 was > 100 µM (inactive) each time. The GI50 with LOX IMVI, in the experiment on MDA-MB-435, with Malme-3M, in the experiment on NCI-H226, with NCI-H23 and in the experiment with OVCAR-5 was > 100 µM (inactive) in each case. Further, the GI50 in the experiment with OVCAR-8, in the experiment on RXF 393, with SF-295, with SF-539, with SK-MEL-28 and with SK-MEL-5 was > 100 µM (inactive) in each case. In addition, the GI50 in the experiment with SN12C and in the experiment with TK-10 was > 100 µM (inactive) each time.

With `N#CC1CCCC2SC(F)(F)C(F)(F)C12` (stereo not given), the GI50 in the experiment with 786-0 was > 100 µM (inactive); in the experiment on A549 it was > 100 µM (inactive); with EKVX it was > 100 µM (inactive); with HCC 2998, > 100 µM (inactive); in the experiment on HCT-116, > 100 µM (inactive); in the experiment with HT-29, > 88.5 µM (inactive). The GI50 in the experiment with LOX IMVI was 41.6 µM (inactive); in the experiment on MDA-MB-435, > 100 µM (inactive); in the experiment with Malme-3M, > 100 µM (inactive); in the experiment on NCI-H226 it was > 100 µM (inactive); in the experiment with NCI-H23, > 100 µM (inactive); in the experiment with OVCAR-5, > 100 µM (inactive). Moreover, the GI50 in the experiment with OVCAR-8, in the experiment with RXF 393, in the experiment with SF-295, in the experiment with SF-539, with SK-MEL-28 and in the experiment with SK-MEL-5 was > 100 µM (inactive) each time. Further, the GI50 in the experiment with SN12C and with TK-10 was > 100 µM (inactive) in each case.

For `CC(=O)NNc1nc(C)c(C(/C=C/c2ccc([N+](=O)[O-])cc2)=N/NC(N)=S)s1`, the GI50 in the experiment with 786-0, with A549, in the experiment on EKVX, in the experiment on HCC 2998, in the experiment with HCT-116 and with HT-29 was > 100 µM (inactive) in each case. Further, the GI50 in the experiment on LOX IMVI, in the experiment on MDA-MB-435, with Malme-3M, in the experiment with NCI-H226, in the experiment on NCI-H23 and with OVCAR-5 was > 100 µM (inactive) throughout. Also, the GI50 with OVCAR-8, in the experiment on RXF 393, in the experiment on SF-295, in the experiment on SF-539, with SK-MEL-28 and in the experiment with SK-MEL-5 was > 100 µM (inactive) throughout. For the same compound, the GI50 in the experiment on SN12C and in the experiment on TK-10 was > 100 µM (inactive) throughout.

With `O=C(/C=C/c1ccc(O)c(O)c1)OCCOC(=O)/C=C/c1ccc(O)c(O)c1`, the GI50 in the experiment on 786-0 was 42.3 µM (inactive); in the experiment with A549, 32.1 µM (inactive); with EKVX, 26.7 µM (inactive); in the experiment on HCC 2998 it was 31.8 µM (inactive); in the experiment on HCT-116, 21.1 µM (inactive); with HT-29, 21.4 µM (inactive). The GI50 in the experiment on LOX IMVI is 28.6 µM (inactive); in the experiment on MDA-MB-435 it was 31.3 µM (inactive); with Malme-3M, 42.1 µM (inactive); with NCI-H226, 30.1 µM (inactive); in the experiment on NCI-H23 it was 29.4 µM (inactive); in the experiment with OVCAR-5 it was 14.2 µM (inactive). For the same compound, the GI50 is 32.2 µM (inactive) with OVCAR-8; 22.6 µM (inactive) in the experiment on RXF 393; 21.5 µM (inactive) in the experiment on SF-295; 22.4 µM (inactive) in the experiment on SF-539; 36.4 µM (inactive) with SK-MEL-28; 18.2 µM (inactive) in the experiment with SK-MEL-5. In addition, the GI50 in the experiment on SN12C is 25.9 µM (inactive); with TK-10 it was 41.5 µM (inactive).

For the compound `CC(=O)OC(C)(C)[C@H]1O[C@]23O[C@]1(C)C[C@@H](C)[C@@H]2[C@@]1(C)CC[C@@]24C[C@@]25CC[C@H](O[C@@H]2OC[C@@H](O)[C@H](O)[C@H]2O)C(C)(C)[C@@H]5CC[C@H]4[C@]1(C)[C@H]3O`, the GI50 in the experiment with 786-0 was 6.38 µM (inactive); with A549, 6.41 µM (inactive); with EKVX it was 4.06 µM (inactive); in the experiment on HCC 2998, 9.93 µM (inactive); in the experiment on HCT-116, 6.67 µM (inactive); in the experiment on HT-29 it was 8.38 µM (inactive). For the same compound, the GI50 in the experiment on LOX IMVI is 3.27 µM (inactive); with MDA-MB-435, 8.73 µM (inactive); with Malme-3M, 22.8 µM (inactive); in the experiment with NCI-H226 it was 8.59 µM (inactive); in the experiment on NCI-H23, 4.84 µM (inactive); in the experiment on OVCAR-5 it was 11.8 µM (inactive). For the same compound, the GI50 is 10.8 µM (inactive) in the experiment with OVCAR-8; 3.36 µM (inactive) with RXF 393; 8 µM (inactive) in the experiment on SF-295; 4.35 µM (inactive) with SF-539; 7.08 µM (inactive) with SK-MEL-28; 10.3 µM (inactive) in the experiment on SK-MEL-5. Moreover, the GI50 with SN12C was 4.41 µM (inactive); with TK-10 it was 10 µM (inactive).

For the compound `Cc1cc(Cl)ccc1Nc1sc(C(=O)c2cc3cc(Cl)ccc3o2)c(N)c1C#N`, the GI50 was 3.83 µM (inactive) with 786-0; 5.98 µM (inactive) in the experiment on A549; 17.9 µM (inactive) in the experiment on EKVX; 3.1 µM (inactive) in the experiment with HCC 2998; 18.4 µM (inactive) in the experiment with HCT-116; 8.67 µM (inactive) in the experiment on HT-29. For the same compound, the GI50 is > 100 µM (inactive) in the experiment on LOX IMVI; 8.71 µM (inactive) in the experiment with MDA-MB-435; 80.5 µM (inactive) in the experiment with Malme-3M; > 87.7 µM (inactive) with NCI-H226; 7.41 µM (inactive) in the experiment with NCI-H23; > 43.7 µM (inactive) in the experiment with OVCAR-5. Moreover, the GI50 in the experiment on OVCAR-8 is 11.4 µM (inactive); in the experiment on RXF 393, 27.7 µM (inactive); in the experiment with SF-295, 4.76 µM (inactive); with SF-539 it was 6.53 µM (inactive); with SK-MEL-28, > 28.1 µM (inactive); in the experiment on SK-MEL-5, 3.99 µM (inactive). The GI50 with SN12C was 11.9 µM (inactive); in the experiment on TK-10, > 35.8 µM (inactive).

In the case of `CC1(C)CC[C@]2(C(=O)O)CC[C@]3(C)[C@H](C(=O)C=C4[C@@]5(C)C=C(C#N)C(=O)C(C)(C)[C@@H]5CC[C@]43C)[C@@H]2C1` [BARDOXOLONE], the GI50 was 0.16 µM (active) in the experiment on 786-0; 1.16 µM (inactive) with A549; 1.34 µM (inactive) in the experiment on EKVX; < 0.0412 µM (active) in the experiment with HCC 2998; 0.294 µM (active) with HCT-116; 0.495 µM (active) in the experiment with HT-29. The GI50 in the experiment with LOX IMVI was 0.0944 µM (active); with MDA-MB-435, 0.537 µM (active); in the experiment on Malme-3M it was 0.224 µM (active); in the experiment with NCI-H226 it was 0.416 µM (active); in the experiment on NCI-H23, 0.174 µM (active); with OVCAR-5, 0.488 µM (active). In addition, the GI50 was 0.577 µM (active) in the experiment on OVCAR-8; 0.0995 µM (active) with RXF 393; 0.573 µM (active) in the experiment on SF-295; 0.569 µM (active) in the experiment with SF-539; 0.16 µM (active) with SK-MEL-28; 0.258 µM (active) in the experiment on SK-MEL-5. Moreover, the GI50 with SN12C was 0.493 µM (active); with TK-10 it was 0.678 µM (active).
